Measurements: patent US10343992B2, “1-cyano-pyrrolidine compounds as USP30 inhibitors” (MISSION THERAPEUTICS LIMITED, priority 2015, dated 2019)
pIC50: −log10 of the molar value.

Biological target: USP30 (Homo sapiens (Human), UniProt Q70CQ3)
Assay: USP30 biochemical FP or FI IC50 assay
Conditions: read-out: IC50 range
How it was run: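 Human USP30 preincubated 30 min at room temperature with compound (8-point series, 100 µM top final) in Tris pH 7.5, Tween 20, BSA, 5 mM β-mercaptoethanol, in duplicate. FP format: 50 nM TAMRA-peptide–isopeptide-ubiquitin substrate, ex 540/em 590. FI format: 100 nM ubiquitin-rhodamine 110, ex 487/em 535. Both read at 0 and after 2 h at room temperature.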

Sequence of USP30 (Q70CQ3 57-517): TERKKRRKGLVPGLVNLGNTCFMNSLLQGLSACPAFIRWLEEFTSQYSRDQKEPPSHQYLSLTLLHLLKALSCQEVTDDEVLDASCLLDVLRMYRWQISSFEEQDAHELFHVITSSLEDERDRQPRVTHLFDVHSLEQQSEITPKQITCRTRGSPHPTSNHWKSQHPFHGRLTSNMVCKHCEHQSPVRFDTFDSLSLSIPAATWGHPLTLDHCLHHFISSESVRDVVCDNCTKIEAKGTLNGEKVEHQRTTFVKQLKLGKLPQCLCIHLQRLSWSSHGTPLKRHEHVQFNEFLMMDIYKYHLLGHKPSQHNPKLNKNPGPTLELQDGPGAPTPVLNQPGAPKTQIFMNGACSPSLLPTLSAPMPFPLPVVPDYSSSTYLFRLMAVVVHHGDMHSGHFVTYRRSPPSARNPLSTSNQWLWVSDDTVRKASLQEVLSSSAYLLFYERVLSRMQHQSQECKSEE

N#CN1CC[C@@H](NC(=O)N2CC(c3ccc(Cl)cc3)C2)C1 [Example 191, (R)-3-(4-chlorophenyl)-N-(1-cyanopyrrolidin-3-yl)azetidine-1-carboxamide] was tested. Which pIC50 did it give?
The pIC50 was over 7.00.

With N#CN1CC[C@@H](NC(=O)N2CC(c3cccc(Cl)c3)C2)C1 [Example 192, (R)-3-(3-chlorophenyl)-N-(1-cyanopyrrolidin-3-yl)azetidine-1-carboxamide] as the molecule, how does the pIC50 read?
Its pIC50 is over 7.00.

With N#CN1C[C@H]2CCN(C(=O)N3CC(c4ccccc4)C3)[C@H]2C1 [Example 193, (3aR,6aR)-1-(3-phenylazetidine-1-carbonyl)hexahydropyrrolo[3,4-b]pyrrole-5(1H)-carbonitrile] as the molecule, how does the pIC50 read?
Its pIC50 is 6.00 to 7.00.

CN(C(=O)Nc1ccc(-c2cnn(C)c2)cc1)[C@@H]1CCN(C#N)C1 [Example 194, (R)-1-(1-cyanopyrrolidin-3-yl)-1-methyl-3-(4-(1-methyl-1H-pyrazol-4-yl)phenyl)urea] was tested. Which pIC50 did it give?
The pIC50 was 6.00 to 7.00.

CN(C(=O)Nc1ccc(C(F)(F)F)cc1)[C@@H]1CCN(C#N)C1 [Example 195, (R)-1-(1-cyanopyrrolidin-3-yl)-1-methyl-3-(4-(trifluoromethyl)phenyl)urea] was tested. Which pIC50 did it give?
The pIC50 was 6.00 to 7.00.

N#CN1C[C@H]2CCN(C(=O)Nc3ccc(Cl)cc3F)[C@H]2C1 [Example 196, (3aR,6aR)-N-(4-chloro-2-fluorophenyl)-5-cyanohexahydropyrrolo[3,4-b]pyrrole-1(2H)-carboxamide] was tested. Which pIC50 did it give?
The pIC50 was 6.00 to 7.00.

With N#CN1C[C@H]2CCN(C(=O)Nc3ccc(OC(F)(F)F)cc3F)[C@H]2C1 [Example 197, (3aR,6aR)-5-cyano-N-(2-fluoro-4-(trifluoromethoxy)phenyl)hexahydropyrrolo[3,4-b]pyrrole-1(2H)-carboxamide] as the molecule, how does the pIC50 read?
Its pIC50 is over 7.00.

How did the pIC50 turn out when N#Cc1cc(F)c(NC(=O)N2CC[C@@H]3CN(C#N)C[C@@H]32)cc1F [Example 199, (3aR,6aR)-5-cyano-N-(4-cyano-2,5-difluorophenyl)hexahydropyrrolo[3,4-b]pyrrole-1(2H)-carboxamide] was run?
The pIC50 was 6.00 to 7.00.

With N#CN1C[C@H]2CCN(C(=O)Nc3cc(C(F)(F)F)ccc3F)[C@H]2C1 [Example 201, (3aR,6aR)-5-cyano-N-(2-fluoro-5-(trifluoromethyl)phenyl)hexahydro-pyrrolo[3,4-b]pyrrole-1(2H)-carboxamide] as the molecule, how does the pIC50 read?
The pIC50 was over 7.00.

With N#CN1C[C@H]2CCN(C(=O)Nc3ccc(-c4ccccc4)cn3)[C@H]2C1 [Example 202, (3aR,6aR)-5-cyano-N-(5-phenyl-pyridin-2-yl)hexahydropyrrolo[3,4-b]pyrrole-1(2H)-carboxamide] as the molecule, how does the pIC50 read?
The pIC50 was over 7.00.

How did the pIC50 turn out when N#CN1C[C@H]2CCN(C(=O)Nc3ccc(C(F)(F)F)cc3)[C@H]2C1 [Example 203, (3aR,6aR)-5-cyano-N-(4-(trifluoromethyl)-phenyl)-hexahydropyrrolo[3,4-b]pyrrole-1(2H)-carboxamide] was run?
Its pIC50 is over 7.00.

With CCN(C(=O)Nc1ccc(C(F)(F)F)cc1)[C@@H]1CCN(C#N)C1 [Example 204, (R)-1-(1-cyanopyrrolidin-3-yl)-1-ethyl-3-(4-(trifluoromethyl)phenyl)urea] as the molecule, how does the pIC50 read?
Its pIC50 is over 7.00.

COCCN(C(=O)Nc1ccc(C(F)(F)F)cc1)C1CCN(C#N)C1 (stereo not shown) [Example 205, 1-(1-cyanopyrrolidin-3-yl)-1-(2-methoxyethyl)-3-(4-(trifluoromethyl)phenyl)urea] was tested. Which pIC50 did it give?
Its pIC50 is 6.00 to 7.00.

How did the pIC50 turn out when CCN(C(=O)c1ccc(-c2cnn(C)c2)c(F)c1)[C@@H]1CCN(C#N)C1 [Example 206, (R)-N-(1-cyanopyrrolidin-3-yl)-N-ethyl-3-fluoro-4-(1-methyl-1H-pyrazol-4-yl)benzamide] was run?
Its pIC50 is 6.00 to 7.00.

With CCN(C(=O)N1CC(c2ccccc2)C1)[C@@H]1CCN(C#N)C1 [Example 207, (R)-N-(1-cyanopyrrolidin-3-yl)-N-ethyl-3-phenylazetidine-1-carboxamide] as the molecule, how does the pIC50 read?
Its pIC50 is 6.00 to 7.00.

With N#CN1CC[C@@H](N2CCN(c3nc(-c4ccccc4)cs3)C2=O)C1 [Example 208, (R)-3-(2-oxo-3-(4-phenylthiazol-2-yl)imidazolidin-1-yl)pyrrolidine-1-carbonitrile] as the molecule, how does the pIC50 read?
Its pIC50 is 6.00 to 7.00.

N#CN1CC[C@@H](N2CCCN(c3nc(-c4ccccc4)cs3)C2=O)C1 [Example 209, (R)-3-(2-oxo-3-(4-phenylthiazol-2-yl)tetrahydropyrimidin-1(2 H)-yl)pyrrolidine-1-carbonitrile] was tested. Which pIC50 did it give?
Its pIC50 is 6.00 to 7.00.

With N#CN1CC[C@@H](N2CCN(c3cccc(N4CCOCC4)c3)C2=O)C1 [Example 210, (R)-3-(3-(3-morpholinophenyl)-2-oxoimidazolidin-1-yl)pyrrolidine-1-carbonitrile] as the molecule, how does the pIC50 read?
The pIC50 was 6.00 to 7.00.

N#CN1CC[C@@H](NC(=O)c2ccc3c(c2)OCCN3c2ncccn2)C1 [Example 211, (R)-N-(1-cyanopyrrolidin-3-yl)-4-(pyrimidin-2-yl)-3,4-dihydro-2H-benzo[b][1, 4]oxazine-7-carboxamide] was tested. Which pIC50 did it give?
Its pIC50 is 6.00 to 7.00.

How did the pIC50 turn out when N#CN1CC[C@@H](NC(=O)c2ccc3c(c2)OCCN3c2nccc(C3CC3)n2)C1 [Example 212, (R)-N-(1-cyanopyrrolidin-3-yl)-4-(4-cyclopropylpyrimidin-2-yl)-3,4-dihydro-2H-benzo[b][1, 4]oxazine-7-carboxamide] was run?
Its pIC50 is over 7.00.

With N#CN1CC[C@@H](NC(=O)c2ccc(Nc3nccc(C4CC4)n3)c(F)c2)C1 [Example 213, (R)-N-(1-cyanopyrrolidin-3-yl)-4-((4-cyclopropylpyrimidin-2-yl)amino)-3-fluorobenzamide] as the molecule, how does the pIC50 read?
Its pIC50 is over 7.00.

How did the pIC50 turn out when N#CN1CC[C@@H](NC(=O)c2ccc(Nc3nccc(C4CC4)n3)c(F)c2F)C1 [Example 214, (R)-N-(1-cyanopyrrolidin-3-yl)-4-((4-cyclopropylpyrimidin-2-yl)amino)-2,3-difluorobenzamide] was run?
Its pIC50 is over 7.00.

With CC(C)C(=O)N(C)c1ccnc(C(=O)N[C@@H]2CCN(C#N)C2)c1 [Example 215, (R)-N-(1-cyanopyrrolidin-3-yl)-4-(N-methylisobutyramido)picolinamide] as the molecule, how does the pIC50 read?
The pIC50 was 6.00 to 7.00.

N#CN1CC[C@@H](NC(=O)c2ccc(-c3ccccn3)cn2)C1 [Example 216, (R)-N-(1-cyanopyrrolidin-3-yl)-[2, 3′-bipyridine]-6′-carboxamide] was tested. Which pIC50 did it give?
Its pIC50 is 6.00 to 7.00.

N#CN1CC[C@@H](NC(=O)c2cc(-c3ccccn3)ccn2)C1 [Example 217, (R)-N-(1-cyanopyrrolidin-3-yl)-[2, 4′-bipyridine]-2′-carboxamide] was tested. Which pIC50 did it give?
Its pIC50 is 6.00 to 7.00.

N#CN1CC[C@@H](NC(=O)c2cc(-c3ccc(C(F)(F)F)cc3)no2)C1 [Example 219, (R)-N-(1-cyanopyrrolidin-3-yl)-3-(4-(trifluoromethyl)phenyl)isoxazole-5-carboxamide] was tested. Which pIC50 did it give?
The pIC50 was 6.00 to 7.00.

COc1ccc(-c2cc(C(=O)N[C@@H]3CCN(C#N)C3)on2)cc1OC [Example 220, (R)-N-(1-cyanopyrrolidin-3-yl)-3-(3,4-dimethoxyphenyl)isoxazole-5-carboxamide] was tested. Which pIC50 did it give?
The pIC50 was 6.00 to 7.00.

How did the pIC50 turn out when COc1cccc(-c2cc(C(=O)N[C@@H]3CCN(C#N)C3)on2)c1 [Example 221, (R)-N-(1-cyanopyrrolidin-3-yl)-3-(3-methoxyphenyl)isoxazole-5-carboxamide] was run?
Its pIC50 is over 7.00.

How did the pIC50 turn out when N#CN1CC[C@@H](NC(=O)C2CCN(c3ccccc3)C2)C1 (stereo partly drawn) [Example 222, N-((R)-1-cyanopyrrolidin-3-yl)-1-phenylpyrrolidine-3-carboxamide] was run?
The pIC50 was 6.00 to 7.00.

Cc1cn(-c2ccc(C(=O)N[C@@H]3CCN(C#N)C3)cc2F)cn1 [Example 223, (R)-N-(1-cyanopyrrolidin-3-yl)-3-fluoro-4-(4-methyl-1H-imidazol-1-yl)benzamide] was tested. Which pIC50 did it give?
The pIC50 was over 7.00.

How did the pIC50 turn out when Cc1cn(-c2ccc(C(=O)N(C)[C@@H]3CCN(C#N)C3)cc2F)cn1 [Example 224, (R)-N-(1-cyanopyrrolidin-3-yl)-3-fluoro-N-methyl-4-(4-methyl-1H-imidazol-1-yl)benzamide] was run?
The pIC50 was 6.00 to 7.00.

With N#CN1CC[C@@H](NC(=O)N2CCC(c3ccccn3)C2)C1 (stereo partly drawn) [Example 225, N-((R)-1-cyanopyrrolidin-3-yl)-3-(pyridin-2-yl)pyrrolidine-1-carboxamide] as the molecule, how does the pIC50 read?
The pIC50 was 5.00 to 6.00.

How did the pIC50 turn out when Cn1cc(C2CCN(C(=O)N[C@@H]3CCN(C#N)C3)C2)cn1 (stereo partly drawn) [Example 226, N-((R)-1-cyanopyrrolidin-3-yl)-3-(1-methyl-1H-pyrazol-4-yl)pyrrolidine-1-carboxamide] was run?
Its pIC50 is 5.00 to 6.00.

How did the pIC50 turn out when CN(c1ccc(C(=O)N[C@@H]2CCN(C#N)C2)c(F)c1)S(=O)(=O)c1ccccc1 [Example 228, (R)-N-(1-cyanopyrrolidin-3-yl)-2-fluoro-4-(N-methylphenylsulfonamido)benzamide] was run?
Its pIC50 is 6.00 to 7.00.

How did the pIC50 turn out when Cn1cc(-c2ccc3cc(C(=O)N[C@@H]4CCN(C#N)C4)n(C)c3c2)cn1 [Example 229, (R)-N-(1-cyanopyrrolidin-3-yl)-1-methyl-6-(1-methyl-1H-pyrazol-4-yl)-1H-indole-2-carboxamide] was run?
Its pIC50 is 6.00 to 7.00.

How did the pIC50 turn out when CN(C(=O)Nc1ccnc(N2Cc3ccccc3C2)c1)[C@@H]1CCN(C#N)C1 [Example 231, (R)-1-(1-cyanopyrrolidin-3-yl)-3-(2-(isoindolin-2-yl)pyridin-4-yl)-1-methylurea] was run?
Its pIC50 is 6.00 to 7.00.

With Cn1cc(-c2ccc3c(c2)c(F)c(C(=O)N[C@@H]2CCN(C#N)C2)n3C)cn1 [Example 232, (R)-N-(1-cyanopyrrolidin-3-yl)-3-fluoro-1-methyl-5-(1-methyl-1H-pyrazol-4-yl)-1H-indole-2-carboxamide] as the molecule, how does the pIC50 read?
The pIC50 was over 7.00.

Cn1cc(-c2ccn3c(C(=O)N[C@@H]4CCN(C#N)C4)ncc3c2)cn1 [Example 233, (R)-N-(1-cyanopyrrolidin-3-yl)-7-(1-methyl-1H-pyrazol-4-yl)imidazo[1,5-a]pyridine-3-carboxamide] was tested. Which pIC50 did it give?
Its pIC50 is 6.00 to 7.00.

With N#CN1CC[C@@H](NC(=O)N2CC(c3ccn(-c4ccccc4)n3)C2)C1 [Example 234, (R)-N-(1-cyanopyrrolidin-3-yl)-3-(1-phenyl-1H-pyrazol-3-yl)azetidine-1-carboxamide] as the molecule, how does the pIC50 read?
The pIC50 was over 7.00.

With N#CN1CC[C@@H](NC(=O)N2CC(c3ccn(-c4cnccn4)n3)C2)C1 [Example 235, (R)-N-(1-cyanopyrrolidin-3-yl)-3-(1-(pyrazin-2-yl)-1H-pyrazol-3-yl)azetidine-1-carboxamide] as the molecule, how does the pIC50 read?
The pIC50 was 6.00 to 7.00.
